In US9750698B2, “Controlled release compositions of agents that reduce circulating levels of platelets and methods therefor” (BioVascular, Inc., priority 2008, dated 2017):
Values belong to the compound of their own block, whether it stands above or below them.

Legend:
[1] = Repeat-dose dose-escalation study of controlled release anagrelide: pharmacokinetics; format: in vivo, human; conditions: for AUC0-inf / AUC0-t / AUC0-τ / Cmax: dose-normalized to 0.2 mg
Method: A placebo-controlled, double-blind repeat-dose, dose-escalation, sequential cohort study was conducted to evaluate the pharmacokinetics and pharmacodynamics of a controlled release composition of anagrelide as described herein in healthy subjects. An objective of the study was to explore the dose-response relationship for effects on platelet counts of a low dose range of a composition of anagrelide as described herein in healthy subjects. Other objectives of the study included determining the time course of effect and recovery of a range of doses of the composition including anagrelide on platelet count, determining the effects of a range of doses of the anagrelide compositions on platelet aggregation (collagen and ADP as agonists), determining the single and repeat dose pharmacokinetics of the anagrelide composition, and exploring the safety and tolerability of the compositions given as single doses and repeatedly for up to 21 days.
Eligible subjects were treated as follows: • Subjects were admitted to the unit on day 1 in the morning after an overnight fast and remain in the unit until 4 hours after morning dosing on day 5. • Subjects received a single dose of controlled release composition including anagrelide (or matching placebo) on day 1 in the morning. • Subjects commenced repeat dosing twice a day with the controlled release anagrelide composition on the morning of day 3 and remained in the unit until 4 hours after morning dose on day 5. • Subjects continued repeat twice a day dosing with the controlled release anagrelide composition as outpatients. Dosing continued until the morning of day 23. • All morning doses were taken after an overnight fast of at least 8 hour. • All evening doses were taken at least 2 hour after food consumption. No food was to be consumed for at least 1 hour after any dose (4 hours for the morning doses on day 1 and day 23). • On day 6-day 21, blood was taken pre-dosing of the controlled release anagrelide composition for full blood count (FBC) and platelet count (every day), trough PK (day 7, day 10, day 13, day 16 and day 19) and clinical chemistry (day 13). • Subjects were readmitted to the unit on the morning of day 22 and remained there until day 25 so that the PK of the final dose of the controlled release composition containing anagrelide on day 23 could be followed for 48 hours. • Subjects returned to the clinic daily from day 26 to day 31 for FBC and platelet counts. • Subjects returned for a follow up visit 14-16 days after the last dose of the controlled release composition containing anagrelide. Study Population:
A controlled release composition of anagrelide as described above in Table 4 of Example 1 (composition 2 fast release with seal coat) was used in unit doses of 100 μg and 300 μg, administered orally.
In this protocol, 4 cohorts of 200 μg, 300 μg, 400 μg and 600 μg doses of the controlled release composition including anagrelide administered twice daily were studied.
Platelet count, collagen-induced platelet aggregation, ADP induced platelet aggregation, template bleeding time, AUC0-t, AUC0-∞, Cmax, Cmin, t1/2, λZ and tmax were determined.
The starting dose of 200 μg (as a single dose on day 1 and then twice a day for 21 days) was chosen as a dose unlikely to cause any clinically significant reduction in platelet counts in healthy subjects. This starting dose was chosen because identification of the lowest dose of the controlled release composition containing anagrelide producing any effect on platelet counts was of interest. In each subsequent cohort the dose was increased by […] twice a day with the objective of identifying the dose range that lowers platelet counts by 30-50%. With daily monitoring of platelet counts, this escalation was determined to allow identification of the effective dose range of the controlled release composition of anagrelide without placing the subjects at significant clinical risk.

[2] = 38 volunteers, single 1 mg dose of immediate release anagrelide (Agrylin); cited from earlier work
[3] = patients with ET or other myeloproliferative diseases; cited from earlier work
cultured megakaryocytes = conditions: cited from earlier work
PDEIII = conditions: cited from earlier work
[4] = commercially available instant release formulation; cited from earlier work
[5] = Pre-formulation excipient compatibility by high sensitivity isothermal calorimetry; format: physicochemical; conditions: binary mixture 1:1, isothermal calorimetry, 24 hours, 30-80° C.
Method: Pre-formulation studies utilizing binary mixtures of the API with various excipients (ethylcellulose, Eudragit® RS and RL, Aquacoat® ECD30, ammonium oleate and Surelease® E7 1904) were conducted using a high sensitivity calorimeter in isothermal mode. Excipients were compared on their own and as mixtures with/without saturated sodium chloride solution present. In this technique, the heat changes in samples (API alone, excipient alone, API:excipient (1:1 ratio)) were monitored over 24 hours at a temperature range of 30-80° C. […] Improved dosage forms were formed by employing ethylcellulose in the excipient system and a mode of application including organic (ethanol) spray application due to the insolubility of ethylcellulose in water.

- Kel ([1]; cohort 1 (0.2 mg), day 1): 0.0985 h⁻¹
- t1/2 ([1]; cohort 1 (0.2 mg), day 1): 7.78 h
- Kel ([1]; cohort 1 (0.2 mg), day 23): 0.0608 h⁻¹
- t1/2 ([1]; cohort 1 (0.2 mg), day 23): 12.69 h
- Kel ([1]; cohort 2 (0.4 mg), day 1): 0.0641 h⁻¹
- t1/2 ([1]; cohort 2 (0.4 mg), day 1): 11.64 h
- Kel ([1]; cohort 2 (0.4 mg), day 23): 0.0527 h⁻¹
- t1/2 ([1]; cohort 2 (0.4 mg), day 23): 13.77 h
- Kel ([1]; cohort 3 (0.6 mg), day 1): 0.0673 h⁻¹
- t1/2 ([1]; cohort 3 (0.6 mg), day 1): 12.87 h
- Kel ([1]; cohort 4 (0.3 mg), day 1): 0.0596 h⁻¹
- t1/2 ([1]; cohort 4 (0.3 mg), day 1): 15.30 h
- Kel ([1]; cohort 4 (0.3 mg), day 23): 0.0492 h⁻¹
- t1/2 ([1]; cohort 4 (0.3 mg), day 23): 15.13 h
- AUC0-inf ([1]; cohort 1 (0.2 mg), day 1): 4.6957 ng·h/mL
- AUC0-t ([1]; cohort 1 (0.2 mg), day 1): 4.04622 ng·h/mL
- AUC0-τ ([1]; cohort 1 (0.2 mg), day 1): 4.17916 ng·h/mL
- Cmax ([1]; cohort 1 (0.2 mg), day 1): 0.61542 ng/mL
- AUC0-inf ([1]; cohort 1 (0.2 mg), day 23): 7.27841 ng·h/mL
- AUC0-τ ([1]; cohort 1 (0.2 mg), day 23): 5.66247 ng·h/mL
- Cmax ([1]; cohort 1 (0.2 mg), day 23): 0.75569 ng/mL
- AUC0-inf ([1]; cohort 2 (0.4 mg), day 1): 3.98674 ng·h/mL
- AUC0-t ([1]; cohort 2 (0.4 mg), day 1): 3.36645 ng·h/mL
- AUC0-τ ([1]; cohort 2 (0.4 mg), day 1): 3.04925 ng·h/mL
- Cmax ([1]; cohort 2 (0.4 mg), day 1): 0.35828 ng/mL
- AUC0-inf ([1]; cohort 2 (0.4 mg), day 23): 6.18331 ng·h/mL
- AUC0-τ ([1]; cohort 2 (0.4 mg), day 23): 4.8106 ng·h/mL
- Cmax ([1]; cohort 2 (0.4 mg), day 23): 0.5158 ng/mL
- AUC0-inf ([1]; cohort 3 (0.6 mg), day 1): 4.6058 ng·h/mL
- AUC0-t ([1]; cohort 3 (0.6 mg), day 1): 3.93912 ng·h/mL
- AUC0-τ ([1]; cohort 3 (0.6 mg), day 1): 3.50858 ng·h/mL
- Cmax ([1]; cohort 3 (0.6 mg), day 1): 0.44422 ng/mL
- AUC0-inf ([1]; cohort 4 (0.3 mg), day 1): 4.46186 ng·h/mL
- AUC0-t ([1]; cohort 4 (0.3 mg), day 1): 3.40306 ng·h/mL
- AUC0-τ ([1]; cohort 4 (0.3 mg), day 1): 2.99087 ng·h/mL
- Cmax ([1]; cohort 4 (0.3 mg), day 1): 0.40142 ng/mL
- AUC0-inf ([1]; cohort 4 (0.3 mg), day 23): 5.45894 ng·h/mL
- AUC0-τ ([1]; cohort 4 (0.3 mg), day 23): 4.28075 ng·h/mL
- Cmax ([1]; cohort 4 (0.3 mg), day 23): 0.45837 ng/mL
- Tmax (median) ([1]; cohort 1 (0.2 mg), day 1): 4.01 h
- Tmax (median) ([1]; cohort 1 (0.2 mg), day 23): 3.00 h
- Tmax (median) ([1]; cohort 2 (0.4 mg), day 1): 3.51 h
- Tmax (median) ([1]; cohort 2 (0.4 mg), day 23): 3.02 h
- Tmax (median) ([1]; cohort 3 (0.6 mg), day 1): 4.00 h
- Tmax (median) ([1]; cohort 4 (0.3 mg), day 1): 3.61 h
- Tmax (median) ([1]; cohort 4 (0.3 mg), day 23): 3.00 h
SMILES: O=C1NC2=Nc3ccc(Cl)c(Cl)c3CN2C1O (centres unmarked) [3-Hydroxy-Anagrelide]

SMILES: O=C1NC2=Nc3ccc(Cl)c(Cl)c3CN2C1O (centres unmarked) [3-hydroxy anagrelide, 6,7-dichloro-3-hydroxy-1,5-dihydro-imidazo[2,1-b]quinazolin-2-one]
- AUC0-inf ± RSD (%) [2]: 18.0 ± 35.6 ng·h/mL
- Cmax ± RSD (%) [2]: 5.47 ± 56.9 ng/mL
- Tmax ± RSD (%) [2]: 1.28 ± 58.1 h
- t1/2 ± RSD (%) [2]: 2.5 ± 28.7 h
- Observed half-life [3]: 3.9 h
- Share of all drug-related products in the plasma [3]: about 45%
- In vitro effects on megakaryocytopoiesis relative to anagrelide (cultured megakaryocytes): equipotent
- Potency as PDEIII inhibitor relative to anagrelide (PDEIII): 40 times
- Terminal half-life [4]: 3.9 h

SMILES: Cl.O.O=C1CN2Cc3c(ccc(Cl)c3Cl)N=C2N1 [API, 6,7-dichloro-1,5-dihydroimidazo-[2,1-b]quinazolin-2(3H)-one mono-hydrochloride monohydrate]
- Compatibility with Aquacoat [5]: not conclusive as to compatibility
- Compatibility with Eudragit (RS and RL) [5]: showed evidence of incompatibility
- Compatibility with Surelease [5]: showed evidence of incompatibility
- Compatibility with ammonium oleate [5]: showed evidence of incompatibility
- Compatibility with ethylcellulose [5]: showed evidence of compatibility

SMILES: NC1=Nc2ccc(Cl)c(Cl)c2CN1 [RL603, 2-amino-5,6-dichloro-3,4-dihydroquinazoline]
- AUC0-inf ± RSD (%) [2]: 16.0 ± 32.3 ng·h/mL
- Cmax ± RSD (%) [2]: 1.36 ± 34.0 ng/mL
- Tmax ± RSD (%) [2]: 2.5 ± 58.5 h
- t1/2 ± RSD (%) [2]: 7.8 ± 31.1 h
- Observed half-life [3]: 8.7 h
- Share of all drug-related products in the plasma [3]: about 33%
- Activity on TPO-induced stimulation of megakaryocytes / megakaryocytopoiesis (cultured megakaryocytes): essentially inactive
- Activity against PDE III (PDEIII): essentially inactive
